Measurements reported in US11957661B2, “JAK1 pathway inhibitors for the treatment of vitiligo” (Incyte Corporation, priority 2020, dated 2024).

How the values were obtained:
[1] = tested on: CD3/CD28-activated human CD8+ T cells; test: Protein analysis (Luminex) of CD8+ T cell conditioned media; type: cell-based; conditions: for LIF, T cells: T cell data
Experimental: (§1) Methods: CD8+ T cell Conditioned Media Step: Normal Human CD8+ T Cells from peripheral blood were purchased ([…] Technologies). They were cultured for 48 hours at 37 C and 5% CO2 under activating and unactivating conditions inside the Incucyte Live-Cell Analysis System (Essen Bioscience). Activated T cells were cultured in a flat bottom 96 well plate (Costar) that was first coated with 10 ug/ml anti-CD3 (BD Biosciences) for 2 hours at room temperature and then washed one time with PBS before cells were added. They were grown in Melanocyte Growth Medium (NHM-GM, MatTek) containing 1 ug/ml anti-CD28 (BD Biosciences). Unactivated T cells were treated the same way except that they were cultured in a separate plate without anti-CD3 and anti-CD28. Each T cell plate was treated at seeding with Compound 1 (1000, 100, or 10 nM) or media alone. Each treatment was done in triplicate. After 48 hours, all the samples (T cells and media) were transferred to new V-bottom plates and centrifuged at 1300 RPMs for 10 minutes. Supernatants were collected from the T cell pellets carefully to not disturb the pellet. The supernatants (CD8+ T cell Conditioned Media) used fresh to treat the melanocyte. The remaining amounts were stored at −80 C and then thawed for protein analysis by Luminex technology (custom Procarta 45-plex, Thermo Fisher Scientific). The treated CD8+ T cell pellets were lysed using the Quantigene sample processing kit reagents following the kit instructions. Lysates were stored at −80 C and then thawed for RNA analysis by Luminex technology using two custom Quantigene 80-Plexes—150 targeted genes total (Thermo Fisher Scientific).
as §1, with “ruxolitinib” for “Compound 1”

Normal Human Melanocytes [2] = test: Melanocyte proliferation assay with 20% CD8+ T cell conditioned media; type: cell-based; conditions: for suppressed melanocyte proliferation response: 1000 nM co-cultured with CD3/CD28-activated human CD8+ T cells, 20% conditioned media; for spontaneous proliferation compared to the natural melanocyte proliferation rate: added to the inflammatory culture media, time-dependent
Experimental: The assay investigates an in vitro system using CD8+ T Cells and melanocytes. The assay tests whether Compound 1 modulates the inflammatory response and how such modulation affects melanocyte biology.
as §1
(§2) Melanocyte Proliferation Step: Normal Human Melanocytes isolated from a donor's neonatal foreskin epidermis were purchased (MatTek). They were thawed and seeded following manufacturer's instruction in NHM-GM media in flat bottom 96 well plates (Costar) for 18 hours at 37 C and 5% CO2. They were approximately 10% confluent when treated with 20% CD8+ T cell Conditioned Media (25 ul Conditioned media added to 100 ul of NHM-GM already in the wells). They were cultured for 48 hours at 37 C and 5% CO2 inside the Incucyte Live-Cell Analysis System (Essen Bioscience) with 5 images per well taken every 3 hrs. After 48 hours, all the supernatants were transferred from the melanocyte plates to new V-bottom plates and centrifuged at 1300 RPMs for 10 minutes. Supernatants were collected and were stored at −80 C and then thawed for protein analysis by Luminex technology (custom Procarta 45-plex, Thermo Fisher Scientific). The treated melanocytes were lysed using the Quantigene sample processing kit reagents following the kit instructions. Lysates were stored at −80 C and then thawed for RNA analysis by Luminex technology using two custom Quantigene 80-Plexes for a total of 150 targeted genes (Thermo Fisher Scientific). Incucyte images were analyzed using the Incucyte software and the percentage of melanocyte confluence was determined for each treatment.
The assay investigates an in vitro system using CD8+ T Cells and melanocytes. The assay tests whether ruxolitinib modulates the inflammatory response and how such modulation affects melanocyte biology. […]

Normal Human Melanocytes [3] = test: Protein analysis (Luminex) of melanocyte media after 20% CD8+ T cell conditioned media; type: cell-based; conditions: for IL-8, protein melanocyte media: melanocytes under stress conditions
Experimental: as §2

human JAK2 = human JAK2 (Homo sapiens (Human), UniProt O60674); test: In vitro JAK kinase assay (HTRF, Example A); type: biochemical; conditions: JAK2/JAK1 IC50 ratio, 1 mM ATP
Experimental: (§3) The catalytic activity of JAK1, JAK2 or JAK3 was assayed by measuring the phosphorylation of a biotinylated peptide. The phosphorylated peptide was detected by homogenous time resolved fluorescence (HTRF). […] Reactions were carried out at room temperature for 1 hour and then stopped with 20 μL 45 mM EDTA, 300 nM SA-APC, 6 nM Eu-Py20 in assay buffer (Perkin Elmer, Boston, MA). Binding to the Europium labeled antibody took place for 40 minutes and HTRF signal was measured on a Fusion plate reader (Perkin Elmer, Boston, MA).

human JAK1 = human JAK1 (Homo sapiens, UniProt P23458); test: In vitro JAK kinase assay (HTRF, Example A); type: biochemical; conditions: 1 mM ATP
Experimental: as §3

[4] = co-cultured with CD3/CD28-activated human CD8+ T cells
[5] = melanocytes treated with activated T cell conditioned media

Sequence of human JAK2 (O60674 828-1132): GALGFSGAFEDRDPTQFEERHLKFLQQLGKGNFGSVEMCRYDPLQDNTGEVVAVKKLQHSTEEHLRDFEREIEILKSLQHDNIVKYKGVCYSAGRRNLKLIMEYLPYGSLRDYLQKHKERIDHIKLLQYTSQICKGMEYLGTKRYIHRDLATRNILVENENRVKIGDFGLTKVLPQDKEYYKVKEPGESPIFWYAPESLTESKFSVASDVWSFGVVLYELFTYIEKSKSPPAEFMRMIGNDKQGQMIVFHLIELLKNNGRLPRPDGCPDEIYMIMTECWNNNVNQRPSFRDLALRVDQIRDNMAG

| SMILES | LIF, T cells [1] | IL-2, protein T cell media [1, 4] | IL-4, protein T cell media [1, 4] | IL-5, protein T cell media [1, 4] | IL-6, protein T cell media [1, 4] | additional mediators not obligated to use JAK1 signaling (growth factors and chemokine), protein T cell media [1, 4] | inflammatory cytokines that are JAK-STAT dependent, protein T cell media [1, 4] | IL-8 concentration, CD8+ T cells ([1]; treatment of CD8+ T cells) | suppressed melanocyte proliferation response (Normal Human Melanocytes [2]) | spontaneous proliferation compared to the natural melanocyte proliferation rate (Normal Human Melanocytes [2]) | IL-10, protein melanocyte media (Normal Human Melanocytes [3]; [5]) | IL-13, protein melanocyte media (Normal Human Melanocytes [3]; [5]) | inflammatory cytokines that are JAK-STAT dependent, protein melanocyte media (Normal Human Melanocytes [3]; [5]) | IL-8, protein melanocyte media (Normal Human Melanocytes [3]) | JAK2/JAK1 (human JAK2) | IC50 (human JAK1) | melanocyte proliferation (% confluence) (Normal Human Melanocytes [2]; following transfer of 20% unactivated T cell media) | increase of IL-8 (Normal Human Melanocytes [3]; melanocyte culture) | reduction of HGF levels (Normal Human Melanocytes [3]; melanocyte culture supernatants after activated T cell conditioned media) |
| --- | --- | --- | --- | --- | --- | --- | --- | --- | --- | --- | --- | --- | --- | --- | --- | --- | --- | --- | --- |
| N#CC[C@H](C1CCCC1)n1cc(-c2ncnc3[nH]ccc23)cn1 [ruxolitinib] | on-target inhibition | upregulated | no effect | no effect | no effect | reduced | inhibits | slightly reduced | completely reverse | significant reduction | no effect | no effect | reduces | reduced | – | – | – | – | – |
| N#CCC1(n2cc(-c3ncnc4[nH]ccc34)cn2)CN([C@H]2CC[C@@H](Oc3cc(CN4CC[C@H](O)C4)cc(C(F)(F)F)n3)CC2)C1 [Compound 22, {1-(cis-4-{[4-{[(3S)-3-hydroxypyrrolidin-1-yl]methyl}-6-(trifluoromethyl)pyridin-2-yl]oxy}cyclohexyl)-3-[4-(7H-pyrrolo[2,3-d]pyrimidin-4-yl)-1H-pyrazol-1-yl]azetidin-3-yl}acetonitrile] | – | – | – | – | – | – | – | – | – | – | – | – | – | – | >10 | < 10 nM | – | – | – |
| Cc1n[nH]c(C)c1-c1cnn(C2(CC#N)CN(c3cc(F)c(C(=O)N[C@@H](C)C(F)(F)F)cc3F)C2)c1 [Compound 1, 4-[3-(cyanomethyl)-3-(3′,5′-dimethyl-1H,1′H-4,4′-bipyrazol-1-yl)azetidin-1-yl]-2,5-difluoro-N-[(1S)-2,2,2-trifluoro-1-methylethyl]benzamide] | on-target inhibition | – | – | – | – | reduced | inhibits | – | partially reversed | significant reduction | – | – | reduces | increased | – | – | does not directly alter | ~450% | ~67% |
